Data on 22 compounds can be found in patent US5086070A, “4-benzyl-1H-indoles and anti-arrthymic use thereof” (Roussel Uclaf, priority 1989, dated 1992).

In data set [1] the test system is ventricular extrasystoles. As to the kind of experiment: Anti-arhythmic action in the rat (aconitine-induced ventricular extrasystoles). In kind it is in vivo. The note with it: read-out: Percentage of protection (percentage increase in the aconitine dose necessary to initiate the ventricular extrasystoles); for change in vivo at 1 mg/kg / change in vivo at 5 mg/kg: iv; for change in vivo at 25 mg/kg: po, 1 h. How it is done: Male rats weighing 300-350 g, anaesthetized by intraperitoneal route with 1.20 g/kg of urethane, were tracheotomized and subjectd to artificial respiration (40-50 insufflations of 3 ml/minute). Needles were implanted under the skin to record the electrocardiogram of the rats on reception of the DII signal. The test products were administered intravenously or orally. After five minutes in the case of intravenous administration and one hour in the case of oral administration, the jugular vein of the rats was perfused with 10 micrograms/minutes under 0.21 ml of an aconitine solution and the time taken for the first ventricular extrasystoles to appear was noted. The amount of aconitine perfused was calculated, then expressed as a function of the body weight of the animal.
The percentage increase in the aconitine dose necessary to initiate the ventricular extrasystoles after treatment was calculated relative to the control animals.

A further data set relates to blood-platelets. The data set is described as follows: Blood-platelet aggregation, in vitro, on plasma rich in blood-platelets (PRP). In kind it is cell-based. The settings on record: Oryctolagus cuniculus, 2 min, rabbit PRP, 2 minutes incubation. An excerpt: 3) Test for the Activity of Anti-Aggregation of Blood-Platelets. Blood-Platelet Aggregation, in Vitro, on Plasma Rich in Blood-Platelets (PRP)
Measurement of blood-platelet aggregation was made according to the turbidimetric method of Born et al 1963, J. Physiol., Vol. 168, p. 178. Rabbit's blood was removed on Na citrate at 3.2% of cardiac puncture and the plasma rich in blood-platelets was obtained by centrifuging and adjustment of the number of blood-platelets to […]. The aggregation was induced by collagen (40 micrograms per ml of PRP) or PAF acether (0.05 micromoles per liter of PRP). The test compounds were incubated at different concentrations in the PRP 2 minutes before the aggregating agent. The results are expressed in IC50 (concentration inhibiting the aggregation by 50% relative to the control curves).

Another data set relates to caudal artery. As to the kind of experiment: Test for anti-calcic activity in vitro, isolated caudal artery of the rat (contraction induced by calcium chloride). The settings on record: caudal artery rings of Wistar rats, depolarizing solution KCl 100 mM, CaCl2 2.5 mM, phentolamine 10^-5 M, 37° C., read-out: IC50 (concentration which inhibited by 50% the contraction induced by calcium chloride). Format: cell-based. The protocol:
Isolated caudal artery of the rat.
When the contractile responses became reproducible, the test product was added in increasing concentrations 15 minutes before each contraction.

The next data set relates to mouse. As to the kind of experiment: Acute toxicity, oral, mouse. Format: in vivo. How it is done: The lethal doses LD0 of the various compounds tested were evaluated after oral administration to a mouse. […]
[2] abbreviates: PAF acether 0.05 micromoles per liter of PRP, read-out: IC50, induction by PAF ACETHER (concentration inhibiting the aggregation by 50%).
[3] abbreviates: collagen 40 micrograms per ml of PRP, read-out: IC50, induction by COLLAGEN (concentration inhibiting the aggregation by 50%).

SMILES strings stand for the structures. Where two headings read alike, the source gives them in different places.

Regarding `Cn1ccc2c(C(=O)c3ccccc3OCC(O)CNC(C)(C)C)cccc21` (racemic) [Example 10, (±)[2-[3-[(1,1-dimethylethyl)-amino]-2-hydroxy-propoxy]-phenyl]-(1-methyl-1H-indol-4-yl) methanone], the change in vivo at 1 mg/kg in data set [1] amounted to 133%. Besides, the change in vivo at 25 mg/kg in data set [1] stood at 124%. The IC50 came to 70 µM in the data set on blood-platelets (setting [2]) and 21 µM with blood-platelets (setting [3]).

As to `Cn1ccc2c(Cc3ccccc3OCC(O)CNC(C)(C)C)cccc21` (racemic) [Example 11, (±) 1-[(1,1-dimethylethyl)-amino]-3-[2-[(1-methyl-1H-indol-4-yl)-methyl]-phenoxy]-2-propanol], the change in vivo at 5 mg/kg in data set [1] came out at 257%. Moreover, the change in vivo at 25 mg/kg in data set [1] was found to be 81%. Moreover, the IC50 in the data set with caudal artery turned out to be 3 µM; with blood-platelets (setting [2]), 24 µM; in the data set on blood-platelets (setting [3]), 10 µM.

Turning to `Cn1ccc2c(C(O)c3ccccc3OCCCNC(C)(C)C)cccc21` (racemic) [Example 13, (±) α-[2-[3-[(1,1-dimethylethyl)-amino]-propoxy]-phenyl-1-methyl-1H-indol-4-methanol], the change in vivo at 5 mg/kg in data set [1] was determined as 140%. Besides, the IC50 was determined as 70 µM in the data set on blood-platelets (setting [2]) and 60 µM in the data set on blood-platelets (setting [3]).

Turning to `CC(C)N(CC(O)COc1ccccc1C(=O)c1cccc2[nH]ccc12)C(C)C` (racemic) [Example 18, (±) [2-[3-[[bis-1-methylethyl)-amino]-2-hydroxy-propoxy]-phenyl]-(1H-indol-4-yl) methanone], the change in vivo at 5 mg/kg in data set [1] was 135%. In addition, the IC50 in the data set with caudal artery worked out at 7.2 µM.

For the compound `CN1CCN(CC(O)COc2ccccc2C(=O)c2cccc3[nH]ccc23)CC1` (racemic) [Example 19, (±) [2-[2-hydroxy-3-(4-methyl-1-piperazinyl)-propoxy]-phenyl]-(1H-indol-4-yl) methanone], in data set [1], the change in vivo at 5 mg/kg came to 142%.

As for `O=C(c1ccccc1OCC(O)CNC1CCCCC1)c1cccc2[nH]ccc12` (racemic) [Example 21, (±) [2-[(3-cyclohexylamino)-2-hydroxylpropoxy]-phenyl]-(1H-indol-4-yl) methanone], the change in vivo at 5 mg/kg in data set [1] was 124%.

In the case of `C=C(c1ccccc1OCC(O)CNC(C)(C)C)c1cccc2[nH]ccc12` (racemic) [Example 22, (±) 3-[(1,1-dimethylethyl)-amino]-[2-[1-(1H-indol-4-yl)-ethenyl]-phenoxy]-2-propanol], in data set [1], the change in vivo at 5 mg/kg stood at 84%. Also, in data set [1], the change in vivo at 25 mg/kg was determined as 33%. In addition, the values for the IC50 with caudal artery, in the data set with blood-platelets (setting [2]) and in the data set with blood-platelets (setting [3]) were 3.8 µM, 14 µM and 9 µM, respectively. For the same compound, the “LD0 (maximum dose which did not cause any deaths over 8 days)” value with mouse amounted to 200 mg/kg.

`CC(c1ccccc1OCC(O)CNC(C)(C)C)c1cccc2[nH]ccc12` (racemic) [Example 23, (±) 3-[(1,1-dimethylethyl)-amino]-1-[2-[1-(1H-indol-4-yl)-ethyl]-phenoxy]-2-propanol]: the change in vivo at 5 mg/kg in data set [1] stood at 88%. In addition, the values for the IC50 with caudal artery, in the data set on blood-platelets (setting [2]) and with blood-platelets (setting [3]) were 4.7 µM, 25 µM and 8 µM, respectively.

Turning to `CON=C(c1ccccc1OCC(O)CNC(C)(C)C)c1cccc2[nH]ccc12` (racemic) [Example 25, (±) O-methyloxime of [2-[3-[(2,2-dimethylethyl)-amino]-2-hydroxypropoxy]-phenyl]-(1H-indol-4-yl) methanone], the change in vivo at 5 mg/kg in data set [1] came to 186%.

As to `CC(C)(C)NCC(O)COc1ccccc1C(O)c1cccc2[nH]ccc12` (single isomer, unassigned) [Example 8, α-[2-[3-[(1,1-dimethylethyl)-amino]-2-hydroxy-propoxy]-phenyl]-1H-indole-4-methanol benzoate], the “LD0 (maximum dose which did not cause any deaths over 8 days)” value in the data set with mouse is greater than 200 mg/kg.

On to `CC(C)(C)NCC(O)COc1ccccc1C(O)c1cccc2[nH]ccc12` (single isomer, unassigned; isomer b) [Example 9, α-[2-[3-[(1,1-dimethylethyl)-amino]-2-hydroxy-propoxy]-phenyl]-1H-indole-4-methanol benzoate (Isomer B)], for which, in data set [1], the change in vivo at 5 mg/kg was greater than 165% and the change in vivo at 25 mg/kg stood at 91%. Moreover, in the data set on mouse, the “LD0 (maximum dose which did not cause any deaths over 8 days)” value is on record as greater than 200 mg/kg.

As to `CC(C)(C)NCCCOc1ccc(C(=O)c2cccc3[nH]ccc23)cc1` [Example 1, [4-[3-[(1,1-dimethyl-ethyl)-amino]-propoxy]-phenyl]-(1H-indol-4-yl)-methanone], in the data set on caudal artery, the IC50 came to 0.46 µM.

Turning to `CC(C)(C)NCC(O)COc1ccc(C(=O)c2cccc3[nH]ccc23)cc1` (stereo not drawn) [Example 2, [4-[3-[(1,1-dimethyl ethyl)-amino]-2-hydroxypropoxy]-phenyl]-(1H-indol-4-yl)-methanone], in data set [1], the change in vivo at 5 mg/kg is 93% and the change in vivo at 25 mg/kg was 82%. Besides, the IC50 with caudal artery was found to be 1.9 µM.

`CC(C)(C)NCCCOc1ccccc1C(=O)c1cccc2[nH]ccc12.O=C(O)c1ccccc1` [Example 3, [2-[3-[(1,1-dimethyl ethyl)-amino]-propoxy]-phenyl]-(1H-indol-4-yl)-methanone benzoate]: the change in vivo at 5 mg/kg in data set [1] was 202%. Besides, the change in vivo at 25 mg/kg in data set [1] turned out to be 52%. In addition, the IC50 in the data set on caudal artery was 1.9 µM; in the data set on blood-platelets (setting [2]), 47 µM; in the data set with blood-platelets (setting [3]), 31 µM. Also, in the data set with mouse, the “LD0 (maximum dose which did not cause any deaths over 8 days)” value amounted to 100 mg/kg.

Consider `CC(C)(C)NCC(O)COc1ccccc1C(=O)c1cccc2[nH]ccc12` (stereo not drawn) [Example 4, [2-[3-[(1,1-dimethyl ethyl)-amino]-2-hydroxypropoxy]-phenyl]-(1H-indol-4-yl)-methanone], for which the change in vivo at 5 mg/kg in data set [1] is greater than 217%. Also, in data set [1], the change in vivo at 25 mg/kg was 73%. Besides, the IC50 turned out to be 6.2 µM in the data set on caudal artery, 55 µM with blood-platelets (setting [2]) and 9.5 µM in the data set on blood-platelets (setting [3]).

Take `CC(C)(C)NCC(O)COc1ccccc1Cc1cccc2[nH]ccc12` (stereo not drawn) [Example 5, 1-[(1,1-dimethyl-ethyl)-amino]-3-[2-[(1H-indol-4-yl)-methyl]-phenoxy]-2-propanol]: the IC50 with caudal artery is 2 µM; in the data set on blood-platelets (setting [2]) it was 42 µM; with blood-platelets (setting [3]), 18 µM. In addition, in the data set with mouse, the “LD0 (maximum dose which did not cause any deaths over 8 days)” value is greater than 200 mg/kg.

For the compound `CC(C)(C)NCCCOc1ccccc1Cc1cccc2[nH]ccc12` [Example 6, N-(1,1-dimethylethyl)-3-[2-[(1H-indol-4-yl)-methyl]-phenoxy]-propanamine benzoate], the IC50 in the data set on caudal artery came out at 0.4 µM; in the data set on blood-platelets (setting [2]) it was 37 µM; with blood-platelets (setting [3]) it was 14 µM.

On to `CC(C)(C)NCCCOc1ccccc1C(O)c1cccc2[nH]ccc12` (stereo not drawn) [Example 7, α-[2-[3-[(1,1-dimethylethyl)-amino]-propoxy]-phenyl]-1H-indol-4-methanol benzoate], for which, in data set [1], the change in vivo at 5 mg/kg was greater than 201%. In the data set on mouse, the “LD0 (maximum dose which did not cause any deaths over 8 days)” value was determined as 100 mg/kg.

`Cn1ccc2c(C(=O)c3ccccc3OCCCNC(C)(C)C)cccc21` [Example 12, [2-[3-[(1,1-dimethylethyl)-amino]-propoxy]-phenyl]-(1-methyl-1H-indol-4-yl)methanone]: the change in vivo at 1 mg/kg in data set [1] came out at 99%. Moreover, the results for the IC50 with caudal artery, in the data set on blood-platelets (setting [2]) and in the data set with blood-platelets (setting [3]) were 4.8 µM, 40 µM and 40 µM, respectively.

Take `CC(C)(C)NCC(O)COc1ccccc1C(=O)c1cccc2c1CC(=O)N2` (stereo not drawn) [Example 15, 1,3-dihydro-4-[2-[3-[(1,1-dimethylethyl)-amino]-2-hydroxy-propoxy]-benzoyl]-2H-indol-2-one]: the “LD0 (maximum dose which did not cause any deaths over 8 days)” value in the data set on mouse is on record as greater than 200 mg/kg.

For the compound `CC(C)(C)NCCOc1ccccc1C(=O)c1cccc2[nH]ccc12` [Example 16, [2-[2-[(1,1-dimethylethyl)-amino]-ethoxy]-phenyl]-(1H-indol-4-yl)-methanone], the figures for the IC50 in the data set with caudal artery, in the data set on blood-platelets (setting [2]) and in the data set with blood-platelets (setting [3]) were 1.1 µM, 100 µM and 57 µM, respectively.

For `C=C(c1ccccc1OCCCNC(C)(C)C)c1cccc2[nH]ccc12` [Example 24], the figures for the IC50 in the data set on caudal artery, with blood-platelets (setting [2]) and in the data set with blood-platelets (setting [3]) were 3.1 µM, 14 µM and 8 µM, respectively.
